Measurements reported in patent US12053452B2 (priority 2021, dated 2024).

Tests used:
Format in all cases: in vivo
[1] = tested on: BTBR mice; experiment: Novelty preference test, BTBR; details: all tested doses IP
Method: This assay was conducted in adult male C57 and BTBR mice (n=6 per group) in a dedicated conditioning room where ambient light, sound, and human contact were tightly controlled. Social preference chambers consist of two polycarbonate boxes (13.5 cm wide×22.5 cm tall×31.0 cm deep), floored with rough-textured black ABS plastic, and connected to one another by a 1.25″ PVC T-junction. An infrared photobeam emitter/detector array is mounted at each intersection of the T-junction and each preference compartment, and as a mouse traversed the apparatus, it would break the photobeam upon entry to or exit from each preference compartment. Beam breaks started or stopped a counter on an interfaced computer, allowing automated collection of time spent in each compartment. At the end of each test, data were reported as time (in seconds) spent in each compartment, the number of entries into each compartment, and the average time spent in each compartment following an entry. Social preference tests were conducted in an iterative manner, with each test subject completing four distinct phases as described below. Between testing sessions, chambers were sanitized by wiping the insides with a disinfectant product provided by the UAMS Department of Laboratory Animal Medicine. […]

[2] = tested on: C57 mice; experiment: Social novelty preference test, C57
Method: (§1) This assay was conducted in adult male C57 and BTBR mice (n=6 per group) in a dedicated conditioning room where ambient light, sound, and human contact were tightly controlled. Social preference chambers consist of two polycarbonate boxes (13.5 cm wide×22.5 cm tall×31.0 cm deep), floored with rough-textured black ABS plastic, and connected to one another by a 1.25″ PVC T-junction. An infrared photobeam emitter/detector array is mounted at each intersection of the T-junction and each preference compartment, and as a mouse traversed the apparatus, it would break the photobeam upon entry to or exit from each preference compartment. Beam breaks started or stopped a counter on an interfaced computer, allowing automated collection of time spent in each compartment. At the end of each test, data were reported as time (in seconds) spent in each compartment, the number of entries into each compartment, and the average time spent in each compartment following an entry. Social preference tests were conducted in an iterative manner, with each test subject completing four distinct phases as described below. Between testing sessions, chambers were sanitized by wiping the insides with a disinfectant product provided by the UAMS Department of Laboratory Animal Medicine. At the end of the week (upon completion of all phases of the procedure), each apparatus was disassembled and all parts were sanitized. No food or water were available during social preference sessions, but were available in the home cage immediately afterwards.
A single social novelty preference session occurred the day after the sociability test, where one compartment contained a wire mesh cup with the same NIH Swiss mouse from the previous day inside (referred to now as the “familiar” mouse) while the other compartment contained a new male NIH Swiss stranger mouse inside the cup which previously contained the dummy mouse during the sociability test. […] The position of the now familiar NIH Swiss mouse (left or right compartment) remained the same for each subject as during the sociability test the day before, thereby counterbalancing the position of the new NIH Swiss stranger mouse across subjects. As before, the new NIH Swiss stranger mice were housed separately from the experimental subjects (C57 and BTBR mice) in the colony facility, and the first time the experimental subjects ever encountered them was when they entered the compartment where they were contained. During this session, mice were weighed, administered the same injection as the day before, and returned to their home cage for a 30 min pretreatment period. Mice were then introduced into the T-junction and allowed to explore both preference compartments for 15 minutes. Social novelty tests always occurred on Thursdays or Fridays to prevent any weekend testing.

[3] = tested on: C57 mice; experiment: Radiotelemetry of core temperature, C57
Method: (§2) The radiotelemetry assay was conducted in adult male C57 and BTBR mice (n=6 per group) in a dedicated testing room where ambient light, sound, and human contact were tightly controlled.
(§3) Prior to surgical implantation of radiotelemetry probes, mice received 3 mg/kg meloxicam (IP), and anesthesia was induced with 4% inhaled isoflurane and maintained with 1-3% isoflurane (as needed) throughout the procedure at a flow rate of 1.5 litres/minute. The abdominal area of each animal was treated with depilatory cream, then sanitized with 3 alternating scrubs with iodine and alcohol. A rostral-caudal cut approximately 1.5 cm in length was made with sterile skin scissors, providing access to the intraperitoneal cavity. A cylindrical glass-encapsulated radiotelemetry probe (model ER-4000 E-Mitter, Mini Mitter, Bend, OR, USA) was then inserted. These probes measure 15.5 mm×6.5 mm and weigh approximately 1 gram. Incisions were closed (skin layer and muscle layer separately) using reverse cutting 5-0 Vicryl absorbable sutures for the muscle layer and 5-0 nylon suture material for the skin layer. Surgeries were carried out at least 7 days before initiation of experimental conditions, allowing time for incisions to heal and for animals to recover normal body weights. Following surgery, all implanted mice were individually housed in Plexiglas cages within the telemetry room for the duration of all experiments. Implanted transmitters produce activity- and temperature-modulated signals which are sent to a receiver (model ER-4000 Receiver, Mini Mitter Co., Inc.) underneath each cage. Following use, telemetry probes were removed from carcasses, wiped with alcohol swabs, and stored in the disinfectant solution until re-use.
(§4) At least 7 days after surgical implantation of radiotelemetry probes, mice in their individual home cages were placed atop a telemetry energizer/receiver, which powered probes and transmitted their data to an interfaced computer. Upon initiation of an experimental session, the computer collected two data updates from the probes at 5 min intervals: core temperature (in ° C.) on one channel, and locomotor counts (in arbitrary units, depending on the relative position of the probe atop the receiver) on the other. After at least 60 minutes of baseline data collection, mice were removed from their cages, injected with saline or a given dose of a specific drug, then returned to the home cage 24 hours of data collection.
(§5) Food and water were always freely available in the home cage. Mice were injected with ascending doses of a given drug, with at least 48 hours separating doses. Because there are few studies of drug effects in BTBR mice, the first drug dose tested occasionally elicited unexpectedly large locomotor effects in these animals. In these cases, smaller drug doses were tested next, after a washout period of at least one full day.

[4] = tested on: BTBR mice; experiment: Radiotelemetry of core temperature, BTBR
Method: as §2, §3, §4, §5

[5] = tested on: C57 mice; experiment: Sociability test, C57
Method: as §1
A single sociability session occurred the day after the novelty preference test, where one compartment contained a wire mesh cup with a dummy mouse inside while the other compartment contained a male NIH Swiss stranger mouse inside the previously empty cup. […] The position of the dummy mouse (left or right compartment) remained the same for each subject as during the novelty test the day before, thereby counterbalancing the position of the stranger mouse across subjects. NIH Swiss stranger mice were similar in mass and appearance to the dummy PVC mice, and were housed separately from the experimental subjects (C57 and BTBR mice) in the colony facility. The first time the experimental subjects ever encountered the stranger mice was when they entered the compartment where they were contained. During this session, mice were weighed, administered the same injection as the day before, and returned to their home cage for a 30 min pretreatment period. Mice were then introduced into the T-junction and allowed to explore both preference compartments for 15 minutes. Sociability tests always occurred on Wednesdays or Thursdays to prevent any weekend testing.

[6] = 3.0 mg/kg IP, listed as racemic (50/50) MDMA, 3 mg/kg

CN[C@@H](C)Cc1ccc2c(c1)OCO2 [S(+)-MDMA, (2S)-1-(1,3-benzodioxol-5-yl)-N-methylpropan-2-amine]
novelty preference (time spent with the dummy mouse) [1]: No dose of racemic MDMA (e.g comparative composition 1) or S(+)-MDMA (e.g comparative composition 3) elicited any effects on novelty preference
social novelty preference (new stranger mouse vs familiar mouse) ([2]; 3.0 mg/kg IP): not different from saline
social novelty preference (new stranger mouse vs familiar mouse) ([2]; 3.0 mg/kg and 5.6 mg/kg IP): does not elicit any substantial preference for the stranger mouse
social novelty preference (new stranger mouse vs familiar mouse) ([2]; various doses IP): no systematic effects on social novelty preference
effect on core temperature ([3]; 10 mg/kg IP): elicited an increase in temperature
jump in core temperature ([3]; 18 mg/kg i.p): greater than that observed by administration of 56 mg/kg i.p of Racemic MDMA
effect on core temperature ([3]; 30 mg/kg IP): elicits significant hyperthermia
lethality during core temperature recording ([3]; approximately 5-8 hrs after injection): one animal experiencing profound hypothermia before expiring
effect on core temperature ([3]; various/increasing doses IP): dose-dependent increase in temperature
effect on core temperature ([4]; 10 mg/kg IP, 10 mg/kg): elicited a similar increase in temperature
effect on core temperature ([4]; 10 mg/kg IP, listed as S-MDMA, 10 mg/kg): did not differ much from that observed with Racemic MDMA
jump in core temperature ([4]; 18 mg/kg i.p): greater than that observed by administration of 56 mg/kg i.p of Racemic MDMA
effect on core temperature ([4]; 30 mg/kg IP, 30 mg/kg): elicited a large hyperthermic response
effect on core temperature ([4]; 30 mg/kg IP, listed as S-MDMA, 30 mg/kg): strong hyperthermic response
effect on core temperature ([4]; various/increasing doses IP): dose dependent increase in temperature
effect on core temperature ([4]; various/increasing doses IP, listed as S-MDMA): dose-dependent increase in temperature
sociability (time spent with the stranger mouse vs dummy) ([5]; 3.0 mg/kg IP): not different from saline
sociability (time spent with the stranger mouse vs dummy) ([5]; various doses IP): no systematic effects on sociability

CNC(C)Cc1ccc2c(c1)OCO2 (racemic) [racemic MDMA, 1-(1,3-benzodioxol-5-yl)-N-methylpropan-2-amine]
novelty preference (time spent with the dummy mouse) [1]: No dose of racemic MDMA (e.g comparative composition 1) or S(+)-MDMA (e.g comparative composition 3) elicited any effects on novelty preference
social novelty preference (new stranger mouse vs familiar mouse) ([2]; 3.0 mg/kg IP, 3 mg/kg): strong preference for the stranger over the now familiar mouse
social novelty preference (new stranger mouse vs familiar mouse) [2, 6]: elicit significant effects on sociability
social novelty preference (new stranger mouse vs familiar mouse) ([2]; various doses IP): dose-dependent increase in time spent with the stranger mouse
social novelty preference (new stranger mouse vs familiar mouse) ([2]; various doses IP, listed as Racemic MDMA): bi-phasic dose-response preference for stranger mouse over familiar mouse, with maximum preference documented at 3 mg/kg dose
effect on core temperature ([3]; 10 mg/kg IP): induced a drop in core temperature
rise in core temperature ([3]; 56 mg/kg IP): ~2 degrees C.
effect on core temperature ([3]; various/increasing doses IP): gradual increase in core temperature
effect on core temperature ([4]; 30 mg/kg IP): results in an increase in temperature but is not as significant as S-MDMA
rise in core temperature ([4]; 56 mg/kg IP): ~2 degrees C.
effect on core temperature ([4]; various/increasing doses IP): gradual increase in core temperature
effect on core temperature ([4]; various/increasing doses IP, listed as racemic compositions of MDMA): dose dependent increase in temperature
sociability (time spent with the stranger mouse vs dummy) ([5]; 3.0 mg/kg IP, 3 mg/kg): moderate preference for the stranger over the dummy
sociability (time spent with the stranger mouse vs dummy) [5, 6]: elicit significant effects on sociability
sociability (time spent with the stranger mouse vs dummy) ([5]; various doses IP): dose-dependent increase in time spent with the stranger mouse
